Data taken from ChEMBL document CHEMBL2021783, “Inhibition of cholinesterase activity and amyloid aggregation by berberine-phenyl-benzoheterocyclic and tacrine-phenyl-benzoheterocyclic hybrids” (Bioorg Med Chem, 2012).
pIC50: −log10 of the molar value. Calls of active or inactive are those of the source. The calls are words filed in the database; no cut-off is given here.

Experiments:
Acetylcholinesterase = Acetylcholinesterase (Electrophorus electricus, UniProt O42275)
Description: Inhibition of electric eel AChE using acetylcholine as substrate by Ellman's method

Cholinesterase = Cholinesterase (Equus caballus, UniProt P81908)
Description: Inhibition of equine serum BuChE using butyrylcholine as substrate by Ellman's method

[1] = Inhibition of amyloid beta (1 to 42) self aggregation at 20 uM after 48 hrs by thioflavin T fluorescence assay
[2] = biological target: Acetylcholinesterase (Electrophorus electricus) (UniProt O42275); assay: Ratio of IC50 for tarcine to compound for electric eel AChE using acetylcholine as substrate by Ellman's method
[3] = biological target: Acetylcholinesterase (Electrophorus electricus) (UniProt O42275); assay: Mixed-type inhibition of electric eel AChE using acetylcholine as substrate after 15 mins by Lineweaver-Burk plot analysis

Acetylcholinesterase, sequence (O42275 whole entry): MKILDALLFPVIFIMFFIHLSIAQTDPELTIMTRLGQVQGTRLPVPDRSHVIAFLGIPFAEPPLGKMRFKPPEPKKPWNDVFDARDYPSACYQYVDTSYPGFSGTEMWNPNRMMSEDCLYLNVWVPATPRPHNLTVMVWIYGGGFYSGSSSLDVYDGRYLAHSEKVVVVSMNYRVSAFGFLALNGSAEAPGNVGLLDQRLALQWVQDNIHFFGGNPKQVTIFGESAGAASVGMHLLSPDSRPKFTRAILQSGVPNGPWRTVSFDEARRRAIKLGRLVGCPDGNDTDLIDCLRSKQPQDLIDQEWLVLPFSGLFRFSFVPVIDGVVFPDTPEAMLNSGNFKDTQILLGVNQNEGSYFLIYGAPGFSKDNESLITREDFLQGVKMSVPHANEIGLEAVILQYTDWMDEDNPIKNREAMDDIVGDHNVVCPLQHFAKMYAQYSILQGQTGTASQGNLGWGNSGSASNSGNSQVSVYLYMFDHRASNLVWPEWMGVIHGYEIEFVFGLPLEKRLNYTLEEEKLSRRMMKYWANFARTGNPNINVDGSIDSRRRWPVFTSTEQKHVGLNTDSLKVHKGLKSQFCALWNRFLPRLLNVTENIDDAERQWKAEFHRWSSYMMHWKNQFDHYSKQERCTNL
Cholinesterase, sequence (P81908 whole entry): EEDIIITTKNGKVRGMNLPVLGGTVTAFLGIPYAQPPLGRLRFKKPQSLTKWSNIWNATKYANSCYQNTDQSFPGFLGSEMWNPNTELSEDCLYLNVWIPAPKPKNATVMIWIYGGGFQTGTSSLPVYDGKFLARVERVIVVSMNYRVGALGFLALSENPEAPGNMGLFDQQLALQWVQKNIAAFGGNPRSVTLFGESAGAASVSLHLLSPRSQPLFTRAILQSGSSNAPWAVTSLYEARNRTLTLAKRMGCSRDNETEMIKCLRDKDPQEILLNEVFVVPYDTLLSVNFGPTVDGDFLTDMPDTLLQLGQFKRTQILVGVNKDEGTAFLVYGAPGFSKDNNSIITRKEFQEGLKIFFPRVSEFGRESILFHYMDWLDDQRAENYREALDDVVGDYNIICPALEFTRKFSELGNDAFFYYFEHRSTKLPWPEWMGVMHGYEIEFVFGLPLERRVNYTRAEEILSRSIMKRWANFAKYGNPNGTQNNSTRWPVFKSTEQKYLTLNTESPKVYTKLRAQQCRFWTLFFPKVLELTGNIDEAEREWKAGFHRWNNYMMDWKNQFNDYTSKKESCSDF
Acetylcholinesterase (Electrophorus electricus), sequence (O42275 24-633 limits assumed): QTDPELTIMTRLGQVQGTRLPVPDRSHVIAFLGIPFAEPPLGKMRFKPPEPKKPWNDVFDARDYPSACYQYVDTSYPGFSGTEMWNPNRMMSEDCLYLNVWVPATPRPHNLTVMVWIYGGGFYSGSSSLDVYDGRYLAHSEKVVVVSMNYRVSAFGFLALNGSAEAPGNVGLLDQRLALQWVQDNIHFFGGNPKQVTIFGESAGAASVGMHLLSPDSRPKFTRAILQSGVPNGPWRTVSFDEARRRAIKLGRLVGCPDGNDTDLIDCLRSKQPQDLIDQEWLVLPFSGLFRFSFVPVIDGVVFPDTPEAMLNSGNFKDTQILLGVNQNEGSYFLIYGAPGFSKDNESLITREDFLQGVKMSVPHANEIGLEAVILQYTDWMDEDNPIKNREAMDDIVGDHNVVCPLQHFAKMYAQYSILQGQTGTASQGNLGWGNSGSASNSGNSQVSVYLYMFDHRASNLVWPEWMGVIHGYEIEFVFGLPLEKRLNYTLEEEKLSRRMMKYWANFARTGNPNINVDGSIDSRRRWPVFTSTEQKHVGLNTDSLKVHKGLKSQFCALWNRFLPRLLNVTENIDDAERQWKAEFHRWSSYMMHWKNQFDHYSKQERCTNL

Structure (SMILES) | pIC50 (Acetylcholinesterase) | pIC50 (Cholinesterase) | inhibition [1] [%] | Ratio IC50 [2] | inhibition [3]
c1ccc2oc(-c3ccc(OCCCNc4c5c(nc6ccccc46)CCCC5)cc3)cc2c1 | 7.24 | 6.81 | 62.8 | – | –
COc1ccc2cc3[n+](cc2c1OCCOc1ccc(-c2nc4ccccc4s2)cc1)CCc1cc2c(cc1-3)OCO2 | 5.79 | 6.76 | – | – | –
COc1ccc2cc3[n+](cc2c1OCCCOc1ccc(-c2nc4ccccc4s2)cc1)CCc1cc2c(cc1-3)OCO2 | 5.83 | 6.23 | 79.2 | – | –
COc1ccc2cc3[n+](cc2c1OCCOc1ccc(-c2cc4ccccc4o2)cc1)CCc1cc2c(cc1-3)OCO2 | 5.44 | – | – | – | –
c1ccc2oc(-c3ccc(OCCCNc4c5c(nc6ccccc46)CCCC5)cc3)nc2c1 | 6.32 | 6.45 | 57.6 | – | –
c1ccc2oc(-c3ccc(OCCCCNc4c5c(nc6ccccc46)CCCC5)cc3)nc2c1 | 6.02 | 6.68 | 33.2 | – | –
COc1ccc2cc3[n+](cc2c1OCCOc1ccc(-c2nc4ccccc4o2)cc1)CCc1cc2c(cc1-3)OCO2 | 5.48 | – | – | – | –
c1ccc2sc(-c3ccc(OCCCNc4c5c(nc6ccccc46)CCCC5)cc3)nc2c1 | 7.77 | 6.91 | 51.8 | 18 | Active
c1ccc2oc(-c3ccc(OCCCCNc4c5c(nc6ccccc46)CCCC5)cc3)cc2c1 | 6.70 | 6.62 | 46.3 | – | –
c1ccc2sc(-c3ccc(OCCCCNc4c5c(nc6ccccc46)CCCC5)cc3)nc2c1 | 6.98 | 6.73 | 37.8 | – | –
COc1ccc2cc3[n+](cc2c1OCCCNC(=O)c1cc2ccccc2[nH]1)CCc1cc2c(cc1-3)OCO2 | 6.01 | 5.66 | 73.5 | – | –
COc1ccc2cc3[n+](cc2c1OC)CCc1cc2c(cc1-3)OCO2 | – | – | 36.3 | – | –
COc1ccc2cc3[n+](cc2c1OCCCOc1ccc(-c2nc4ccccc4o2)cc1)CCc1cc2c(cc1-3)OCO2 | 5.67 | 6.19 | – | – | –
COc1ccc2cc3[n+](cc2c1OCCOc1ccc(-c2cc4ccccc4[nH]2)cc1)CCc1cc2c(cc1-3)OCO2 | 5.97 | – | – | – | –
c1ccc2sc(-c3ccc(OCCCCCNc4c5c(nc6ccccc46)CCCC5)cc3)nc2c1 | 7.40 | 6.77 | 40.7 | – | –
COc1ccc2cc3[n+](cc2c1OCCCOc1ccc(-c2cc4ccccc4[nH]2)cc1)CCc1cc2c(cc1-3)OCO2 | 6.11 | 6.15 | – | – | –
c1ccc2sc(-c3ccc(OCCCCCCNc4c5c(nc6ccccc46)CCCC5)cc3)nc2c1 | 7.03 | 7.09 | 41.9 | – | –
COc1ccc2cc3[n+](cc2c1OCCCOc1ccc(-c2cc4ccccc4o2)cc1)CCc1cc2c(cc1-3)OCO2 | 5.72 | 6.00 | 84.6 | – | –
COc1ccc2cc3[n+](cc2c1OCCCNC(=O)c1cc2ccccc2o1)CCc1cc2c(cc1-3)OCO2 | 5.71 | 5.81 | 69.1 | – | –
